Values after ≈ are worked out from the molar mass of the structure shown. Where two headings read alike, the source gives them in different places.

Broadly, the solubility is how much of the substance goes into solution per volume. A lower solubility goes with a poorly soluble substance. In general, half-life refers to how long it takes for the measured level to halve.

Data set [1] can be described thus: Solubility in phosphate buffer (0.16 M). Format: physicochemical. The settings on record: aqueous buffer, thermodynamic from solid. Here is the method:
Excess amounts of each salt were added to the phosphate buffer (0.5 ml) individually. The mixtures were stirred and centrifuged at 6000 rpm for 6 min. The concentrations of each of the salts in their saturated solutions were analyzed by HPLC. The pH of the solutions was held constant throughout the experiment.

The nature of data set [2]: In vitro skin permeation study, Franz-type diffusion cell. Format: in vitro ADME. The settings on record: male, Wistar, rat, read-out: Kp x10^6 (permeability coefficient) (converted). Here is the method:
The in vitro skin permeation study was performed by using skin from the whole dorsal area of a male Wistar rat. […] For each salt and the parent drug, the cumulative amounts permeated through the skin were plotted against time. A steady-state flux (Jss) was obtained by dividing the slope of that graph by the surface area of the diffusion cell (4.906 cm^2).
All the reagents and solvents required for the syntheses were purified by general laboratory techniques before use. The purity of the compounds and completion of the reactions were monitored by thin layer chromatography (TLC) on silica gel plates (60 F254; Merck), visualized with ultraviolet light or iodine vapors. […] Melting points were determined using a Veego make silicon oil bath-type melting point apparatus and are uncorrected. The IR spectra were recorded using the KBr disc method in cm^−1 on a Bruker FTIR, Model 8300. The PMR spectra were recorded in CDCl3 on a Bruker 400 MHz spectrometer (chemical shifts in δ ppm, coupling constant J in Hz). λmax was determined on the Shimadzu 1800 UV spectrophotometer. The mass of the compounds was determined by LC-MS using electron impact as the source of ionization. DSC was performed on the Shimadzu DSC-60 model with the thermal analyser TA 60WS. The scanning electron microscope (SEM) model ESEM-EDAX XL-30, Philips (Netherlands) was used for the study of surface morphology. In vitro skin permeation studies were conducted using a Franz-type diffusion cell using skin from the whole dorsal area of a male Wistar rat (200 ± 10 g). Animal experiments were performed with the approval of the institutional animal ethical committee (MSU/PHARM/IAEC/2011/14) in accordance with Laboratory Animal Welfare guidelines.
In vitro skin permeation studies were performed by using skin from the whole dorsal area of a male Wistar rat in a Franz-type diffusion cell. Skin specimens were rehydrated before being mounted in the diffusion cell. The receptor medium (0.05 M phosphate buffer saline solution of pH 7.4) was stirred and kept at 37±1°C throughout the study.
The permeability coefficients (Kp) for the steady-state delivery were obtained by dividing the steady-state flux (Jss) by the solubilities of the compounds in the corresponding vehicle. The receiver medium (0.05 M phosphate buffer saline solution of pH 7.4) was stirred and kept at 37±1°C throughout the study. The compounds were applied as solutions in the phosphate buffer of pH 5.0 or 7.4. At specified time intervals, aliquots (0.5 ml) were withdrawn from the receiver compartment and replaced with fresh buffer. The drug concentrations were analyzed by HPLC.

For data set [3] the following is noted: cited from earlier work.

Take `O=C([O-])Cc1ccc(-c2ccccc2)cc1.[Na+]` [1a]: the solubility in data set [1] (pH 5.0, room temperature) was 14.2 ± 0.31 mM; in data set [1] (pH 7.4, room temperature), 17.1 ± 0.21 mM. Moreover, the Papp is 0.333 nm/s in data set [2] (pH 5) and 0.667 nm/s in data set [2] (pH 7.4).
Take `NCCO.O=C(O)Cc1ccc(-c2ccccc2)cc1` [1b]: the solubility in data set [1] (pH 5.0, room temperature) was 28.96 ± 0.28 mM; in data set [1] (pH 7.4, room temperature), 24.1 ± 0.34 mM. The Papp in data set [2] (pH 5) is 0.222 nm/s; in data set [2] (pH 7.4), 1.78 nm/s.
Take `O=C(O)Cc1ccc(-c2ccccc2)cc1` [compound 1, reference compound]: the solubility in data set [1] (pH 5.0, room temperature) was 0.57 ± 0.14 mM (≈ 121 µg/mL); in data set [1] (pH 7.4, room temperature), 54.08 ± 0.14 mM (≈ 11500 µg/mL). In addition, the Papp in data set [2] (pH 5) is 2.08 nm/s; in data set [2] (pH 7.4), 0.0833 nm/s. Also, the half-life in data set [3] is listed as over 10 h.

The values are drawn from article PMC4727820 (Scientia Pharmaceutica, 2014).
